Where two headings read alike, the source gives them in different places.
How the values were obtained:
[1] = Solubility in water of calcium salts; format: physicochemical
From the text: The solubility in water of the calcium lactobionate thus obtained was compared with those of other calcium salts (manufactured by Wako Pure Chemical Industries).

[2] = tested on: laying hens; format: in vivo; settings: feed without calcium carbonate and di-lime phosphate; hens aged 470 days, fed 60 days
Protocol: (§1) Ten laying hens aged 470 days (laying white leghorn hens (Julia)) were fed with each of the feeds prepared in Examples 2 to 5 for 60 days and the egg-laying rate, the egg breakage and egg cracking rate and eggshell strength were measured. The egg-laying rate was determined in accordance with the following Equation 1, while the egg breakage and egg cracking rate were determined in accordance with the following Equation 2. Eggshell strength was determined by horizontally placing an egg and measuring the bursting strength with a rheometer. A feed containing no feed additive for laying hens was also prepared as a control. […] Egg-laying rate=(total number of eggs in each test lot/total number of eggs in control lot)×100 [Equation 1] Egg breakage/cracking rate=(number of broken or cracked eggs/total number of eggs yield)×100 [Equation 2]
Ten laying hens aged 470 days (laying white leghorn hens (Julia)) were fed with each of the feeds prepared in Examples 10 and 11 for 60 days and the egg-laying rate, the egg breakage and egg cracking rate and eggshell strength were measured in the same manner as in Examples 2 to 5. […]

[3] = tested on: laying hens; assay: Test Example 4: feeding of feeds of Examples 12 to 14 to laying hens aged 500 days for 60 days; format: in vivo; settings: Boris Brown hens aged 500 days, fed 60 days
Protocol: as §1
Four laying hens aged 500 days (Boris Brown) were fed with each of the feeds prepared in Examples 12 to 14 for 60 days and the egg-laying rate and the eggshell strength were measured in the same manner as in Examples 2 to 5. […]

SMILES	Solubilities in water ([1]; water) [g/100 mL]	Solubilities in water [1] [g/100 mL]	Eggshell strength [2]	Eggshell strength [3]
O=C([O-])[C@H](O)[C@@H](O)[C@H](O)[C@H](O)CO.O=C([O-])[C@H](O)[C@@H](O)[C@H](O)[C@H](O)CO.[Ca+2] [Ca gluconate, reference compound]	3.8	–	–	–
O=C([O-])[C@H](O)[C@@H](O)[C@H](O[C@@H]1O[C@H](CO)[C@H](O)[C@H](O)[C@H]1O)[C@H](O)CO.O=C([O-])[C@H](O)[C@@H](O)[C@H](O[C@@H]1O[C@H](CO)[C@H](O)[C@H](O)[C@H]1O)[C@H](O)CO.[Ca+2] [Ca lactobionate, calcium lactobionate]	–	>40	showed an effect of reinforcing eggshells	eggshell reinforcing effect could be obtained
